In the supplement of paper PMC10307832:

Key:
Assay in all cases: relative viability (nuclei count vs DMSO), 5 days (fraction); higher = more cells survive
NCI-H1792 = system: NCI-H1792
Procedure, shortened: (§1)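 Lung cancer cell lines were pin-tool dosed in 1536-well plates on the day after seeding, with either a lone drug or a fixed anchor-drug dose plus five library-drug doses (not always all listed) in √10 steps. Nuclei were counted on 4× images after 5 days. Relative viability is the ratio of treated-well to vehicle-well nuclei counts, with each value a median of duplicate plates.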

HCC-827 = system: HCC-827
Procedure, shortened: as §1

EKVX = system: EKVX
Procedure, shortened: as §1

NCI-H2009 = system: NCI-H2009
Procedure, shortened: as §1

NCI-H2087 = system: NCI-H2087
Procedure, shortened: as §1

NCI-H2405 = system: NCI-H2405
Procedure, shortened: as §1

NCI-H2170 = system: NCI-H2170
Procedure, shortened: as §1

LC-2-ad = system: LC-2-ad
Procedure, shortened: as §1

BEN = system: BEN
Procedure, shortened: as §1

NCI-H2342 = system: NCI-H2342
Procedure, shortened: as §1

SK-MES-1 = system: SK-MES-1
Procedure, shortened: as §1

NCI-H1734 = system: NCI-H1734
Procedure, shortened: as §1

NCI-H1395 = system: NCI-H1395
Procedure, shortened: as §1

NCI-H1355 = system: NCI-H1355
Procedure, shortened: as §1

HCC-366 = system: HCC-366
Procedure, shortened: as §1

NCI-H2228 = system: NCI-H2228
Procedure, shortened: as §1

NCI-H596 = system: NCI-H596
Procedure, shortened: as §1

HARA = system: HARA
Procedure, shortened: as §1

NCI-H647 = system: NCI-H647
Procedure, shortened: as §1

SK-LU-1 = system: SK-LU-1
Procedure, shortened: as §1

LOU-NH91 = system: LOU-NH91
Procedure, shortened: as §1

NCI-H661 = system: NCI-H661
Procedure, shortened: as §1

NCI-H1437 = system: NCI-H1437
Procedure, shortened: as §1

What does the source list for `C=C1C(=O)O[C@@H](CCCCCCCC)[C@@H]1C(=O)O` [C-75] + COc1cccc2cc(-c3nc([C@H]4CC[C@H](C(=O)O)CC4)n4ncnc(N)c34)[nH]c12 [OSI-027] (partner 0.5 µM)?
relative viability (NCI-H1792; first compound 0.08 µM): 0.694; relative viability (NCI-H1792; first compound 0.253 µM): 0.695; relative viability (NCI-H1792; first compound 0.8 µM): 0.636; relative viability (NCI-H1792; first compound 2.53 µM): 0.419; relative viability (NCI-H1792; first compound 8 µM): 0.712; relative viability (HCC-827; first compound 0.08 µM): 0.757; relative viability (HCC-827; first compound 0.253 µM): 0.826; relative viability (HCC-827; first compound 0.8 µM): 0.751; relative viability (HCC-827; first compound 2.53 µM): 0.597; relative viability (HCC-827; first compound 8 µM): 0.758; relative viability (EKVX; first compound 0.08 µM): 0.699; relative viability (EKVX; first compound 0.253 µM): 0.979; relative viability (EKVX; first compound 0.8 µM): 0.651; relative viability (EKVX; first compound 8 µM): 0.68; relative viability (NCI-H2009; first compound 0.08 µM): 0.675; relative viability (NCI-H2009; first compound 0.253 µM): 0.686; relative viability (NCI-H2009; first compound 0.8 µM): 0.567; relative viability (NCI-H2009; first compound 2.53 µM): 0.545; relative viability (NCI-H2009; first compound 8 µM): 0.426; relative viability (NCI-H2087; first compound 0.08 µM): 0.609; relative viability (NCI-H2087; first compound 0.253 µM): 0.807; relative viability (NCI-H2087; first compound 0.8 µM): 0.54; relative viability (NCI-H2087; first compound 2.53 µM): 0.377; relative viability (NCI-H2087; first compound 8 µM): 0.528; relative viability (NCI-H2405; first compound 0.08 µM): 0.7; relative viability (NCI-H2405; first compound 0.253 µM): 0.63; relative viability (NCI-H2405; first compound 0.8 µM): 0.657; relative viability (NCI-H2405; first compound 2.53 µM): 0.519; relative viability (NCI-H2405; first compound 8 µM): 0.698; relative viability (NCI-H2170; first compound 0.08 µM): 0.797; relative viability (NCI-H2170; first compound 0.253 µM): 0.78; relative viability (NCI-H2170; first compound 0.8 µM): 0.706; relative viability (NCI-H2170; first compound 2.53 µM): 0.321; relative viability (NCI-H2170; first compound 8 µM): 0.703; relative viability (LC-2-ad; first compound 0.08 µM): 0.745; relative viability (LC-2-ad; first compound 0.253 µM): 0.799; relative viability (LC-2-ad; first compound 0.8 µM): 0.747; relative viability (LC-2-ad; first compound 2.53 µM): 0.646; relative viability (LC-2-ad; first compound 8 µM): 0.686; relative viability (BEN; first compound 0.08 µM): 0.347; relative viability (BEN; first compound 0.253 µM): 0.293; relative viability (BEN; first compound 0.8 µM): 0.32; relative viability (BEN; first compound 8 µM): 0.288; relative viability (NCI-H2342; first compound 0.08 µM): 0.582; relative viability (NCI-H2342; first compound 0.253 µM): 0.656; relative viability (NCI-H2342; first compound 0.8 µM): 0.582; relative viability (NCI-H2342; first compound 2.53 µM): 0.628; relative viability (NCI-H2342; first compound 8 µM): 0.591; relative viability (SK-MES-1; first compound 0.08 µM): 0.738; relative viability (SK-MES-1; first compound 0.253 µM): 0.666; relative viability (SK-MES-1; first compound 0.8 µM): 0.568; relative viability (SK-MES-1; first compound 2.53 µM): 0.469; relative viability (SK-MES-1; first compound 8 µM): 0.549; relative viability (NCI-H1734; first compound 0.08 µM): 0.593; relative viability (NCI-H1734; first compound 0.253 µM): 0.621; relative viability (NCI-H1734; first compound 0.8 µM): 0.481; relative viability (NCI-H1734; first compound 2.53 µM): 0.323; relative viability (NCI-H1734; first compound 8 µM): 0.455; relative viability (NCI-H1395; first compound 0.08 µM): 0.669; relative viability (NCI-H1395; first compound 0.253 µM): 0.624; relative viability (NCI-H1395; first compound 0.8 µM): 0.556; relative viability (NCI-H1395; first compound 2.53 µM): 0.667; relative viability (NCI-H1395; first compound 8 µM): 0.649; relative viability (NCI-H1355; first compound 0.08 µM): 0.49; relative viability (NCI-H1355; first compound 0.253 µM): 0.441; relative viability (NCI-H1355; first compound 0.8 µM): 0.391; relative viability (NCI-H1355; first compound 2.53 µM): 0.348; relative viability (NCI-H1355; first compound 8 µM): 0.5; relative viability (HCC-366; first compound 0.08 µM): 1.06; relative viability (HCC-366; first compound 0.253 µM): 1.31; relative viability (HCC-366; first compound 0.8 µM): 0.897; relative viability (HCC-366; first compound 8 µM): 0.834; relative viability (NCI-H2228; first compound 0.08 µM): 0.534; relative viability (NCI-H2228; first compound 0.253 µM): 0.686; relative viability (NCI-H2228; first compound 0.8 µM): 0.398; relative viability (NCI-H2228; first compound 2.53 µM): 0.302; relative viability (NCI-H2228; first compound 8 µM): 0.517; relative viability (NCI-H596; first compound 0.08 µM): 0.887; relative viability (NCI-H596; first compound 0.253 µM): 0.798; relative viability (NCI-H596; first compound 0.8 µM): 0.72; relative viability (NCI-H596; first compound 2.53 µM): 0.622; relative viability (NCI-H596; first compound 8 µM): 0.678; relative viability (HARA; first compound 0.08 µM): 0.634; relative viability (HARA; first compound 0.253 µM): 0.587; relative viability (HARA; first compound 0.8 µM): 0.513; relative viability (HARA; first compound 2.53 µM): 0.31; relative viability (HARA; first compound 8 µM): 0.441; relative viability (NCI-H647; first compound 0.08 µM): 0.697; relative viability (NCI-H647; first compound 0.253 µM): 0.603; relative viability (NCI-H647; first compound 0.8 µM): 0.522; relative viability (NCI-H647; first compound 2.53 µM): 0.474; relative viability (NCI-H647; first compound 8 µM): 0.574; relative viability (SK-LU-1; first compound 0.08 µM): 0.348; relative viability (SK-LU-1; first compound 0.253 µM): 0.379; relative viability (SK-LU-1; first compound 0.8 µM): 0.416; relative viability (SK-LU-1; first compound 2.53 µM): 0.319; relative viability (SK-LU-1; first compound 8 µM): 0.308; relative viability (LOU-NH91; first compound 0.08 µM): 0.725; relative viability (LOU-NH91; first compound 0.253 µM): 0.622; relative viability (LOU-NH91; first compound 0.8 µM): 0.68; relative viability (LOU-NH91; first compound 2.53 µM): 0.656; relative viability (LOU-NH91; first compound 8 µM): 0.781; relative viability (NCI-H661; first compound 0.08 µM): 0.697; relative viability (NCI-H661; first compound 0.253 µM): 0.71; relative viability (NCI-H661; first compound 0.8 µM): 0.72; relative viability (NCI-H661; first compound 2.53 µM): 0.635; relative viability (NCI-H661; first compound 8 µM): 0.736; relative viability (NCI-H1437; first compound 0.08 µM): 0.842; relative viability (NCI-H1437; first compound 0.253 µM): 0.871; relative viability (NCI-H1437; first compound 0.8 µM): 0.867; relative viability (NCI-H1437; first compound 2.53 µM): 0.57; relative viability (NCI-H1437; first compound 8 µM): 0.914
